Our source for the IC50 values is patent publication US20260242419A1, “A CYCLIC PEPTIDE FOR TRAPPING INTERLEUKIN-1 BETA” (Merck Sharp & Dohme LLC, priority 2023, published 2026).

pIC50: −log10 of the molar value. Starred links: 1 amine or outer side, 2 acyl side, 3 side chain; linkers in the order of their positions; H or OH if unused. Non-standard residues stand in square brackets, D forms with d. Residues, ends and D or L forms follow the SMILES beside them. Trp(4-Cl)(βS-Me) = C[C@@H](c1c[nH]c2cccc(Cl)c12)[C@H](N)C(=O)O; dPro(3S-(4-Br-benzyl)) = O=C(O)[C@@H]1NCC[C@@H]1Cc1ccc(Br)cc1; Trp(βS-Me,4-F) = C[C@@H](c1c[nH]c2cccc(F)c12)[C@H](N)C(=O)O; Bip(4'-COOH) = N[C@@H](Cc1ccc(-c2ccc(C(=O)O)cc2)cc1)C(=O)O; Ala(1-bicyclo(1.1.1)pentyl) = N[C@@H](CC12CC(C1)C2)C(=O)O; dPro(4R-Bzl(4-F)) = O=C(O)[C@H]1C[C@@H](Cc2ccc(F)cc2)CN1; X19 = O=C([C@H]1C[C@@H](Cc2ccc(Br)cc2)CN1[*:1])[*:2]; 1Nal(3S-Me) = C[C@@H](c1cccc2ccccc12)[C@H](N)C(=O)O; Ala(pyrimidin-5-yl) = N[C@@H](Cc1cncnc1)C(=O)O; Phe(4-COOH) = N[C@@H](Cc1ccc(C(=O)O)cc1)C(=O)O; dαMeDab = C[C@](CCN[*:3])(N[*:1])C(=O)[*:2]; Pro(cis-4-F) = O=C(O)[C@@H]1C[C@H](F)CN1; Ala(4-THP) = N[C@@H](CC1CCOCC1)C(=O)O; d(αMeK) = C[C@@](N)(CCCCN)C(=O)O; 4Pal = N[C@@H](Cc1ccncc1)C(=O)O; αMeD = C[C@](N)(CC(=O)O)C(=O)O; αMeK = C[C@](N)(CCCCN)C(=O)O; hSer = N[C@@H](CCO)C(=O)O; Orn = NCCC[C@H](N)C(=O)O; Dab = NCC[C@H](N)C(=O)O; Dap = NC[C@H](N)C(=O)O; Aib = CC(C)(N)C(=O)O

T1 sequence (P01584 117-269): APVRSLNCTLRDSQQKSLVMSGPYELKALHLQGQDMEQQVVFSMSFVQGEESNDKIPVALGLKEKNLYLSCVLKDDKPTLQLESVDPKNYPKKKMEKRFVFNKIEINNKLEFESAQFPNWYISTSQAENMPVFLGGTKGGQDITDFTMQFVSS

The experiment has as its target T1, IL-1β (Homo sapiens, UniProt P01584).
T1 construct: purchased BioLegend 579404
Put plainly: IL-6 assay in MRC5 cells: inhibition of IL-1β induced IL-6 secretion (AlphaLISA). The format is cell-based. The conditions noted are these: inhibition of IL-1β induced IL-6 secretion in MRC5 cells; read-out: MRC5 IC50. In outline: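 Compound was pre-incubated 1 h at ambient temperature with recombinant human IL-1β at 2λ EC80 before adding human lung fibroblast MRC5 cells (3000/well) in EMEM with 0.025% BSA. After overnight culture at 37 °C, 5% CO2, secreted IL-6 in conditioned medium was measured by AlphaLISA; IC50 from 4-parameter logistic fits.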
As a reminder, the pIC50 is the negative decadic logarithm of the IC50, by convention in mol/L. Take `C[C@@H](c1cccc2ccccc12)[C@@H]1NC(=O)[C@@H]2C[C@H](F)CN2C(=O)CNC(=O)[C@H](Cc2ccc(C(=O)O)cc2)NC(=O)[C@H](Cc2ccncc2)NC(=O)[C@H](Cc2ccc(-c3ccc(C(=O)O)cc3)cc2)NC(=O)[C@H]2C[C@@H](Cc3ccc(F)cc3)CN2C(=O)CNC(=O)[C@H](CCN)NC(=O)[C@H](CCC(N)=O)NC(=O)[C@H](Cc2cncnc2)NC(=O)C(C)(C)NC(=O)[C@H](Cc2c[nH]c3ccccc23)NC(=O)[C@H](CO)NC(=O)C(C)(C)NC1=O` [Example 140] (cyclo([Bip(4'-COOH)][4Pal][Phe(4-COOH)]G[Pro(cis-4-F)][1Nal(3S-Me)][Aib]SW[Aib][Ala(pyrimidin-5-yl)]Q[Dab]G[dPro(4R-Bzl(4-F))])): the pIC50 was 10.48. For `C[C@@H](c1c[nH]c2cccc(F)c12)[C@@H]1NC(=O)[C@@H]2C[C@H](F)CN2C(=O)CNC(=O)[C@H](Cc2ccc(C(=O)O)cc2)NC(=O)[C@H](Cc2ccncc2)NC(=O)[C@H](Cc2ccc(-c3ccc(C(=O)O)cc3)cc2)NC(=O)[C@H]2C[C@@H](Cc3ccc(F)cc3)CN2C(=O)CNC(=O)[C@H](CCN)NC(=O)[C@H](CCC(N)=O)NC(=O)[C@H](Cc2cncnc2)NC(=O)[C@](C)(CC(=O)O)NC(=O)[C@H](Cc2c[nH]c3ccccc23)NC(=O)[C@H](CO)NC(=O)C(C)(C)NC1=O` [Example 141] (cyclo([Bip(4'-COOH)][4Pal][Phe(4-COOH)]G[Pro(cis-4-F)][Trp(βS-Me,4-F)][Aib]SW[αMeD][Ala(pyrimidin-5-yl)]Q[Dab]G[dPro(4R-Bzl(4-F))])), the negative logarithm of the IC50 (pIC50) is 10.96. Regarding `C[C@@H](c1c[nH]c2cccc(F)c12)[C@@H]1NC(=O)[C@@H]2C[C@H](F)CN2C(=O)CNC(=O)[C@H](Cc2ccc(C(=O)O)cc2)NC(=O)[C@H](Cc2ccncc2)NC(=O)[C@H](Cc2ccc(-c3ccc(C(=O)O)cc3)cc2)NC(=O)[C@H]2C[C@@H](Cc3ccc(F)cc3)CN2C(=O)CNC(=O)[C@H](CCN)NC(=O)[C@H](CCC(N)=O)NC(=O)[C@H](Cc2cncnc2)NC(=O)[C@@](C)(CCN)NC(=O)[C@H](Cc2c[nH]c3ccccc23)NC(=O)[C@H](CO)NC(=O)C(C)(C)NC1=O` [Example 142] (cyclo([Bip(4'-COOH)][4Pal][Phe(4-COOH)]G[Pro(cis-4-F)][Trp(βS-Me,4-F)][Aib]SW[dαMeDab][Ala(pyrimidin-5-yl)]Q[Dab]G[dPro(4R-Bzl(4-F))])), the pIC50 is 10.72. Under `C[C@@H](c1c[nH]c2cccc(F)c12)[C@@H]1NC(=O)[C@@H]2C[C@H](F)CN2C(=O)CNC(=O)[C@H](Cc2ccc(C(=O)O)cc2)NC(=O)[C@H](Cc2ccncc2)NC(=O)[C@H](Cc2ccc(-c3ccc(C(=O)O)cc3)cc2)NC(=O)[C@H]2C[C@@H](Cc3ccc(Br)cc3)CN2C(=O)CNC(=O)[C@H](CCN)NC(=O)[C@H](CCC(N)=O)NC(=O)[C@H](Cc2cncnc2)NC(=O)C(C)(C)NC(=O)[C@H](Cc2c[nH]c3ccccc23)NC(=O)[C@H](CCC(=O)O)NC(=O)C(C)(C)NC1=O` [Example 143] (cyclo([Bip(4'-COOH)][4Pal][Phe(4-COOH)]G[Pro(cis-4-F)][Trp(βS-Me,4-F)][Aib]EW[Aib][Ala(pyrimidin-5-yl)]Q[Dab]G[X19])) stands 10.59; under `C[C@@H](c1c[nH]c2cccc(F)c12)[C@@H]1NC(=O)[C@@H]2C[C@H](F)CN2C(=O)CNC(=O)[C@H](Cc2ccc(C(=O)O)cc2)NC(=O)[C@H](CC23CC(C2)C3)NC(=O)[C@H](Cc2ccc(-c3ccc(C(=O)O)cc3)cc2)NC(=O)[C@H]2C[C@@H](Cc3ccc(F)cc3)CN2C(=O)CNC(=O)[C@H](CCN)NC(=O)[C@H](CCC(N)=O)NC(=O)[C@H](Cc2cncnc2)NC(=O)[C@](C)(CCCCN)NC(=O)[C@H](Cc2c[nH]c3ccccc23)NC(=O)[C@H](CO)NC(=O)C(C)(C)NC1=O` [Example 144] (cyclo([Bip(4'-COOH)][Ala(1-bicyclo(1.1.1)pentyl)][Phe(4-COOH)]G[Pro(cis-4-F)][Trp(βS-Me,4-F)][Aib]SW[αMeK][Ala(pyrimidin-5-yl)]Q[Dab]G[dPro(4R-Bzl(4-F))])), 10.51; under `C[C@@H](c1c[nH]c2cccc(F)c12)[C@@H]1NC(=O)[C@@H]2C[C@H](F)CN2C(=O)CNC(=O)[C@H](Cc2ccc(C(=O)O)cc2)NC(=O)[C@H](CC23CC(C2)C3)NC(=O)[C@H](Cc2ccc(-c3ccc(C(=O)O)cc3)cc2)NC(=O)[C@H]2C[C@@H](Cc3ccc(F)cc3)CN2C(=O)CNC(=O)[C@H](CCN)NC(=O)[C@H](CCC(N)=O)NC(=O)[C@H](Cc2cncnc2)NC(=O)[C@@](C)(CCCCN)NC(=O)[C@H](Cc2c[nH]c3ccccc23)NC(=O)[C@H](CO)NC(=O)C(C)(C)NC1=O` [Example 145] (cyclo([Bip(4'-COOH)][Ala(1-bicyclo(1.1.1)pentyl)][Phe(4-COOH)]G[Pro(cis-4-F)][Trp(βS-Me,4-F)][Aib]SW[d(αMeK)][Ala(pyrimidin-5-yl)]Q[Dab]G[dPro(4R-Bzl(4-F))])), 10.39. Under `C[C@@H](c1c[nH]c2cccc(F)c12)[C@@H]1NC(=O)[C@@H]2C[C@H](F)CN2C(=O)CNC(=O)[C@H](Cc2ccc(C(=O)O)cc2)NC(=O)[C@H](CC23CC(C2)C3)NC(=O)[C@H](Cc2ccc(-c3ccc(C(=O)O)cc3)cc2)NC(=O)[C@H]2C[C@@H](Cc3ccc(F)cc3)CN2C(=O)CNC(=O)[C@H](CCN)NC(=O)[C@H](CCC(N)=O)NC(=O)[C@H](CC2CCOCC2)NC(=O)[C@](C)(CCCCN)NC(=O)[C@H](Cc2c[nH]c3ccccc23)NC(=O)[C@H](CO)NC(=O)C(C)(C)NC1=O` [Example 146] (cyclo([Bip(4'-COOH)][Ala(1-bicyclo(1.1.1)pentyl)][Phe(4-COOH)]G[Pro(cis-4-F)][Trp(βS-Me,4-F)][Aib]SW[αMeK][Ala(4-THP)]Q[Dab]G[dPro(4R-Bzl(4-F))])) stands 10.47; under `C[C@@H](c1c[nH]c2cccc(F)c12)[C@@H]1NC(=O)[C@@H]2C[C@H](F)CN2C(=O)CNC(=O)[C@H](Cc2ccc(C(=O)O)cc2)NC(=O)[C@H](CC23CC(C2)C3)NC(=O)[C@H](Cc2ccc(-c3ccc(C(=O)O)cc3)cc2)NC(=O)[C@H]2C[C@@H](Cc3ccc(F)cc3)CN2C(=O)CNC(=O)[C@H](CCN)NC(=O)[C@H](CCC(N)=O)NC(=O)[C@H](Cc2cncnc2)NC(=O)[C@](C)(CCCCN)NC(=O)[C@H](Cc2c[nH]c3ccccc23)NC(=O)[C@H](CCO)NC(=O)C(C)(C)NC1=O` [Example 147] (cyclo([Bip(4'-COOH)][Ala(1-bicyclo(1.1.1)pentyl)][Phe(4-COOH)]G[Pro(cis-4-F)][Trp(βS-Me,4-F)][Aib][hSer]W[αMeK][Ala(pyrimidin-5-yl)]Q[Dab]G[dPro(4R-Bzl(4-F))])), 10.35; under `C[C@@H](c1c[nH]c2cccc(Cl)c12)[C@@H]1NC(=O)[C@@H]2C[C@H](F)CN2C(=O)CNC(=O)[C@H](Cc2ccc(C(=O)O)cc2)NC(=O)[C@H](Cc2ccncc2)NC(=O)[C@H](Cc2ccc(-c3ccc(C(=O)O)cc3)cc2)NC(=O)[C@H]2C[C@@H](Cc3ccc(F)cc3)CN2C(=O)CNC(=O)[C@H](CCN)NC(=O)[C@H](CCC(N)=O)NC(=O)[C@H](Cc2cncnc2)NC(=O)C(C)(C)NC(=O)[C@H](Cc2c[nH]c3ccccc23)NC(=O)[C@H](CCC(=O)O)NC(=O)C(C)(C)NC1=O` [Example 148] (cyclo([Bip(4'-COOH)][4Pal][Phe(4-COOH)]G[Pro(cis-4-F)][Trp(4-Cl)(βS-Me)][Aib]EW[Aib][Ala(pyrimidin-5-yl)]Q[Dab]G[dPro(4R-Bzl(4-F))])), 10.49.

For the compound `C[C@@H](c1cccc2ccccc12)[C@@H]1NC(=O)[C@@H]2C[C@H](F)CN2C(=O)CNC(=O)[C@H](Cc2ccc(C(=O)O)cc2)NC(=O)[C@H](Cc2ccncc2)NC(=O)[C@H](Cc2ccc(-c3ccc(C(=O)O)cc3)cc2)NC(=O)[C@H]2C[C@@H](Cc3ccc(F)cc3)CN2C(=O)CNC(=O)[C@H](CCN)NC(=O)[C@H](CCC(N)=O)NC(=O)[C@H](Cc2cncnc2)NC(=O)C(C)(C)NC(=O)[C@H](Cc2c[nH]c3ccccc23)NC(=O)[C@H](CCC(=O)O)NC(=O)C(C)(C)NC1=O` [Example 149] (cyclo([Bip(4'-COOH)][4Pal][Phe(4-COOH)]G[Pro(cis-4-F)][1Nal(3S-Me)][Aib]EW[Aib][Ala(pyrimidin-5-yl)]Q[Dab]G[dPro(4R-Bzl(4-F))])), the pIC50 is 10.62. Consider `C[C@@H](c1c[nH]c2cccc(F)c12)[C@@H]1NC(=O)[C@@H]2C[C@H](F)CN2C(=O)CNC(=O)[C@H](Cc2ccc(C(=O)O)cc2)NC(=O)[C@H](Cc2ccncc2)NC(=O)[C@H](Cc2ccc(-c3ccc(C(=O)O)cc3)cc2)NC(=O)[C@H]2[C@@H](Cc3ccc(Br)cc3)CCN2C(=O)CNC(=O)[C@H](CN)NC(=O)[C@H](CCC(N)=O)NC(=O)[C@H](Cc2cncnc2)NC(=O)C(C)(C)NC(=O)[C@H](Cc2c[nH]c3ccccc23)NC(=O)[C@H](CCC(=O)O)NC(=O)C(C)(C)NC1=O` [Example 150] (cyclo([Bip(4'-COOH)][4Pal][Phe(4-COOH)]G[Pro(cis-4-F)][Trp(βS-Me,4-F)][Aib]EW[Aib][Ala(pyrimidin-5-yl)]Q[Dap]G[dPro(3S-(4-Br-benzyl))])), for which the pIC50 is 10.72. Regarding `C[C@@H](c1c[nH]c2cccc(F)c12)[C@@H]1NC(=O)[C@@H]2C[C@H](F)CN2C(=O)CNC(=O)[C@H](Cc2ccc(C(=O)O)cc2)NC(=O)[C@H](Cc2ccncc2)NC(=O)[C@H](Cc2ccc(-c3ccc(C(=O)O)cc3)cc2)NC(=O)[C@H]2[C@@H](Cc3ccc(Br)cc3)CCN2C(=O)CNC(=O)[C@H](CCCN)NC(=O)[C@H](CCC(N)=O)NC(=O)[C@H](Cc2cncnc2)NC(=O)C(C)(C)NC(=O)[C@H](Cc2c[nH]c3ccccc23)NC(=O)[C@H](CCC(=O)O)NC(=O)C(C)(C)NC1=O` [Example 151] (cyclo([Bip(4'-COOH)][4Pal][Phe(4-COOH)]G[Pro(cis-4-F)][Trp(βS-Me,4-F)][Aib]EW[Aib][Ala(pyrimidin-5-yl)]Q[Orn]G[dPro(3S-(4-Br-benzyl))])), the pIC50 was 10.66.
